Tested on: 996289-038-R-J1-PDC spheroid viability
Assay: Anticancer human tumor 996289-038-R-J1-PDC patient-derived colon adenocarcinoma cell line growth inhibition [PI3K]
Conditions: spheroids with HUVEC and MSC; for IC50: curve of first compound; for viability, T/C: stronger effect = lower value
Summary of the method: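 Targeted small molecules plus PI3K inhibitors, half-log dose series from Cmax (default top 10 microM), were applied to heterotypic spheroids of cancer cells with HUVEC and MSCs. Viability indicated growth inhibition.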

[1] = second compound 0.00316 µM, first compound 0.0316 µM
[2] = second compound 0.00316 µM, first compound 0.1 µM
[3] = second compound 0.01 µM, first compound 0.0316 µM
[4] = second compound 0.01 µM, first compound 0.1 µM
[5] = second compound 0.0316 µM, first compound 0.0316 µM
[6] = second compound 0.0316 µM, first compound 0.1 µM
[7] = second compound 0.1 µM, first compound 0.0316 µM
[8] = second compound 0.1 µM, first compound 0.1 µM
[9] = second compound 0.316 µM, first compound 0.0316 µM
[10] = second compound 0.316 µM, first compound 0.1 µM
[11] = second compound 1 µM, first compound 0.0316 µM
[12] = second compound 1 µM, first compound 0.1 µM
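Note: spheroids exposed to compounds for seven days before viability read.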
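Throughout, for viability, T/C: luminescence used as a proxy for viable cell amount; percent viability relative to DMSO vehicle control as 100%.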

Molecule `Cn1ncc(Cl)c1-c1cc(C(=O)NC(CN)Cc2cccc(F)c2)sc1Cl` (centres undefined) + COc1c(OCCCN2CCOCC2)ccc2c3n(c(=NC(=O)c4cnc(N)nc4)nc12)CCN3 has an IC50 (second compound 0.00316 µM) of 5.06 µM, an IC50 (second compound 0.01 µM) of 2.84 µM and an IC50 (second compound 0.0316 µM) of 1.73 µM. The IC50 (second compound 0.1 µM) was 0.212 µM, the IC50 (second compound 0.316 µM) was < 0.0316 µM and the IC50 (second compound 1 µM) was < 0.0316 µM. The viability, T/C [1] was 99.4%, the viability, T/C [2] was 93.6% and the viability, T/C (second compound 0.00316 µM, first compound 0.316 µM) was 82%. The viability, T/C (second compound 0.00316 µM, first compound 1 µM) was 73.2%, the viability, T/C (second compound 0.00316 µM, first compound 3.16 µM) was 56.8% and the viability, T/C (second compound 0.00316 µM, first compound 10 µM) was 39.7%. It also gave a viability, T/C [3] of 92.4%, a viability, T/C [4] of 87.1% and a viability, T/C (second compound 0.01 µM, first compound 0.316 µM) of 74.2%. The viability, T/C (second compound 0.01 µM, first compound 1 µM) was 59.9%, the viability, T/C (second compound 0.01 µM, first compound 3.16 µM) was 54.8% and the viability, T/C (second compound 0.01 µM, first compound 10 µM) was 26.7%. It also gave a viability, T/C [5] of 81.6%, a viability, T/C [6] of 66.5% and a viability, T/C (second compound 0.0316 µM, first compound 0.316 µM) of 70.9%. It also gave a viability, T/C (second compound 0.0316 µM, first compound 1 µM) of 62%, a viability, T/C (second compound 0.0316 µM, first compound 3.16 µM) of 37.6% and a viability, T/C (second compound 0.0316 µM, first compound 10 µM) of 23.7%. It also gave a viability, T/C [7] of 60.3%, a viability, T/C [8] of 59.4% and a viability, T/C (second compound 0.1 µM, first compound 0.316 µM) of 44.6%. For the same molecule, the viability, T/C (second compound 0.1 µM, first compound 1 µM) was 37.3%, the viability, T/C (second compound 0.1 µM, first compound 3.16 µM) was 31.3% and the viability, T/C (second compound 0.1 µM, first compound 10 µM) was 20.5%. The viability, T/C [9] was 34.8%, the viability, T/C [10] was 33% and the viability, T/C (second compound 0.316 µM, first compound 0.316 µM) was 32.8%. It also gave a viability, T/C (second compound 0.316 µM, first compound 1 µM) of 32.3%, a viability, T/C (second compound 0.316 µM, first compound 3.16 µM) of 30.5% and a viability, T/C (second compound 0.316 µM, first compound 10 µM) of 15.1%. The viability, T/C [11] was 18.3%, the viability, T/C [12] was 19.7% and the viability, T/C (second compound 1 µM, first compound 0.316 µM) was 17%. For the same molecule, the viability, T/C (second compound 1 µM, first compound 1 µM) was 23.1%, the viability, T/C (second compound 1 µM, first compound 3.16 µM) was 20.1% and the viability, T/C (second compound 1 µM, first compound 10 µM) was 11%.
`Cn1ncnc1[C@H]1c2n[nH]c(=O)c3cc(F)cc(c23)N[C@@H]1c1ccc(F)cc1` + COc1c(OCCCN2CCOCC2)ccc2c3n(c(=NC(=O)c4cnc(N)nc4)nc12)CCN3 was tested, and the IC50 (second compound 0.00316 µM) was > 0.1 µM, the IC50 (second compound 0.01 µM) was > 0.1 µM and the IC50 (second compound 0.0316 µM) was > 0.1 µM. For the same molecule, the IC50 (second compound 0.1 µM) was > 0.1 µM, the IC50 (second compound 0.316 µM) was < 0.000316 µM and the IC50 (second compound 1 µM) was < 0.000316 µM. For the same molecule, the viability, T/C (second compound 0.00316 µM, first compound 0.000316 µM) was 110%, the viability, T/C (second compound 0.00316 µM, first compound 0.001 µM) was 106% and the viability, T/C (second compound 0.00316 µM, first compound 0.00316 µM) was 102%. It also gave a viability, T/C (second compound 0.00316 µM, first compound 0.01 µM) of 112%, a viability, T/C [1] of 103% and a viability, T/C [2] of 103%. For the same molecule, the viability, T/C (second compound 0.01 µM, first compound 0.000316 µM) was 97.7%, the viability, T/C (second compound 0.01 µM, first compound 0.001 µM) was 92.6% and the viability, T/C (second compound 0.01 µM, first compound 0.00316 µM) was 95.3%. The viability, T/C (second compound 0.01 µM, first compound 0.01 µM) was 100%, the viability, T/C [3] was 97.3% and the viability, T/C [4] was 100%. It also gave a viability, T/C (second compound 0.0316 µM, first compound 0.000316 µM) of 87.8%, a viability, T/C (second compound 0.0316 µM, first compound 0.001 µM) of 91.3% and a viability, T/C (second compound 0.0316 µM, first compound 0.00316 µM) of 80.3%. For the same molecule, the viability, T/C (second compound 0.0316 µM, first compound 0.01 µM) was 79.4%, the viability, T/C [5] was 97.7% and the viability, T/C [6] was 70.8%. For the same molecule, the viability, T/C (second compound 0.1 µM, first compound 0.000316 µM) was 69.4%, the viability, T/C (second compound 0.1 µM, first compound 0.001 µM) was 68.4% and the viability, T/C (second compound 0.1 µM, first compound 0.00316 µM) was 67.4%. The viability, T/C (second compound 0.1 µM, first compound 0.01 µM) was 63.3%, the viability, T/C [7] was 64.6% and the viability, T/C [8] was 48.6%. The viability, T/C (second compound 0.316 µM, first compound 0.000316 µM) was 41.8%, the viability, T/C (second compound 0.316 µM, first compound 0.001 µM) was 39.1% and the viability, T/C (second compound 0.316 µM, first compound 0.00316 µM) was 46.8%. For the same molecule, the viability, T/C (second compound 0.316 µM, first compound 0.01 µM) was 35.3%, the viability, T/C [9] was 44.2% and the viability, T/C [10] was 43.8%. It also gave a viability, T/C (second compound 1 µM, first compound 0.000316 µM) of 22.6%, a viability, T/C (second compound 1 µM, first compound 0.001 µM) of 22.6% and a viability, T/C (second compound 1 µM, first compound 0.00316 µM) of 23.1%. The viability, T/C (second compound 1 µM, first compound 0.01 µM) was 18.3%, the viability, T/C [11] was 25.7% and the viability, T/C [12] was 20.8%.
